Consider five compounds from ChEMBL document CHEMBL5584212, “Characterization of the G-quadruplexes in the transthyretin gene and its role in silencing transthyretin mRNA transcription” (Bioorg Med Chem Lett, 2024).

Series [1] deals with Quadruplex DNA. As to the kind of experiment: Stabilization of parallel TTRG3 G-quadruplex (unknown origin) by CD spectra analysis. The class given is nucleic-acid assay.
Series [2] deals with Quadruplex DNA. As to the kind of experiment: Binding affinity to parallel TTRG1 G-quadruplex (unknown origin) assessed as formation of anti-parallel G-quadruplex formation in presence of 1 mM K+ by circular dichroism spectra analysis. The class given is nucleic-acid assay. (In general: Circular dichroism is widely used to follow secondary structure.)
Series [3] has as its system HepG2. Description: Induction of apoptosis in human HepG2 cells at 20 uM incubated for 48 hrs by calcein-AM/PI staining based analysis. It counts as functional, cell-based.
For series [4], the system named is Quadruplex DNA. As to the kind of experiment: Binding affinity to parallel TTRG1 G-quadruplex (unknown origin) assessed as formation of anti-parallel G-quadruplex formation in presence of 100 mM K+ by circular dichroism spectra analysis. The class given is nucleic-acid assay.
The test system of series [5] is Quadruplex DNA. As to the kind of experiment: Binding affinity to TTRG3 G-quadruplex (unknown origin) assessed as increase in fluorescence intensity at 2 uM by fluorescence titration spectra analysis. The class given is nucleic-acid assay.
Series [6] relates to Quadruplex DNA. Description: Binding affinity to parallel TTRG3 G-quadruplex (unknown origin) assessed as formation of anti-parallel G-quadruplex formation in presence of 100 mM K+ by circular dichroism spectra analysis. It counts as nucleic-acid assay.
In series [7] the test system is HepG2. Description: Downregulation of TTR mRNA expression in human HepG2 cells by RT-PCR analysis. It counts as functional, cell-based.
The subject of series [8] is Quadruplex DNA. Description: Stabilization of TTRG3 G-quadruplex (unknown origin) assessed as change in melting temperature in presence of K+ by circular dichroism analysis. It counts as nucleic-acid assay.
Series [9] relates to Quadruplex DNA. Description: Binding affinity to TTRG3 G-quadruplex (unknown origin) assessed as increase in fluorescence by measuring red shift at 1 uM by UV-Visible spectrophotometric analysis. The class given is nucleic-acid assay.
In series [10] the test system is Quadruplex DNA. Description: Binding affinity to TTRG3 G-quadruplex (unknown origin) assessed as hyperchromic shift by measuring increase in absorbance intensity at 1 uM by UV-Visible spectrophotometric analysis. It counts as nucleic-acid assay.
The subject of series [11] is Quadruplex DNA. Description: Stabilization of TTRG3 G-quadruplex (unknown origin) assessed as melting temperature in presence of K+ by circular dichroism analysis. The class given is nucleic-acid assay.
The test system of series [12] is HepG2. Description: Cytotoxicity against human HepG2 cells at 50 uM by CCK-8 assay relative to control. The following applies: hepg2, 50 µM. The class given is toxicity, cell-based. For orientation: Tetrazolium dyes change colour on reduction, which living cells bring about.
Series [13] deals with Quadruplex DNA. Description: Binding affinity to TTRG3 G-quadruplex (unknown origin) assessed as dissociation constant by fluorescence spectroscopy. The class given is nucleic-acid assay.

Molecules are shown by their SMILES. Active and inactive are the calls of the source. No cut-off for these calls is given here.

A word on the ΔTm: it is the change in melting temperature against a reference sample. For `C[n+]1ccc(-c2c3nc(c(-c4cc[n+](C)cc4)c4ccc([nH]4)c(-c4cc[n+](C)cc4)c4ccc([nH]4)c(-c4cc[n+](C)cc4)c4nc2C=C4)C=C3)cc1`, the result with Quadruplex DNA [1], in the series on Quadruplex DNA [2], in the series with Quadruplex DNA [9] and with Quadruplex DNA [10] was Active. For the same compound, the outcome in the series with HepG2 [3], with Quadruplex DNA [4], in the series with Quadruplex DNA [5] and with Quadruplex DNA [6] was inactive. Moreover, the Activity entry in the series on HepG2 [7] was “Dose-Dependent Effect”. In the series with Quadruplex DNA [8], the ΔTm was 21.5 °C. Further, the Tm in the series on Quadruplex DNA [11] came out at 69.4 °C.
In general, Kd refers to the free concentration of one partner at which half of the binding sites on the other are occupied at equilibrium, for simple one-to-one binding. For the compound `C[n+]1ccc(-c2c3nc(c(-c4cc[n+](C)cc4)c4ccc([nH]4)c(-c4cc[n+](C)cc4)c4nc(c(-c5cc[n+](C)cc5)c5ccc2[nH]5)C=C4)C=C3)cc1.Cc1ccc(S(=O)(=O)[O-])cc1.Cc1ccc(S(=O)(=O)[O-])cc1.Cc1ccc(S(=O)(=O)[O-])cc1.Cc1ccc(S(=O)(=O)[O-])cc1`, the Activity in the series on HepG2 [12] came to 85%. Moreover, the Kd at Quadruplex DNA [13] was determined as 148 nM.
For `CN(C)c1ccc(Nc2c3ccc(NC(=O)CCN4CCCC4)cc3nc3cc(NC(=O)CCN4CCCC4)ccc23)cc1`, the values for the Activity in the series with HepG2 [12] and in the series on HepG2 [7] were 85% and “Dose-Dependent Effect”, respectively. In addition, the result with Quadruplex DNA [1] and with Quadruplex DNA [2] was Active. Moreover, the result with HepG2 [3], in the series with Quadruplex DNA [4], in the series on Quadruplex DNA [5], with Quadruplex DNA [6], with Quadruplex DNA [9] and in the series on Quadruplex DNA [10] was inactive. In addition, the ΔTm in the series on Quadruplex DNA [8] is 6.9 °C. For the same compound, in the series on Quadruplex DNA [11], the Tm was 54.8 °C.
In turn, `CN1/C(=C/c2cc[n+](C)c3ccccc23)Sc2ccccc21.Cc1ccc(S(=O)(=O)[O-])cc1` showed an Activity with HepG2 [12] of 85%. Also, the outcome in the series on Quadruplex DNA [1], in the series with Quadruplex DNA [2], in the series with Quadruplex DNA [5], with Quadruplex DNA [9] and in the series on Quadruplex DNA [10] was Active. The outcome in the series with HepG2 [3], in the series on Quadruplex DNA [4] and with Quadruplex DNA [6] was inactive. Further, the Kd on Quadruplex DNA [13] turned out to be 167 nM. Also, the ΔTm in the series on Quadruplex DNA [8] was 5.4 °C. Further, in the series with Quadruplex DNA [11], the Tm was 53.3 °C.
In the series on HepG2 [12], `CCC1=C(C)c2cc3[nH]c(cc4nc(cc5c(CC)c(C)c(cc1n2)n5C)C(C)=C4CCC(=O)O)c(CCC(=O)O)c3C` registered an Activity of 85%. Moreover, the result in the series on Quadruplex DNA [1], with Quadruplex DNA [2], in the series on Quadruplex DNA [5], in the series on Quadruplex DNA [9] and in the series on Quadruplex DNA [10] was Active. Also, the outcome in the series with HepG2 [3], in the series with Quadruplex DNA [4] and in the series with Quadruplex DNA [6] was inactive. In addition, on Quadruplex DNA [13], the Kd came out at 5.3 nM. Moreover, the ΔTm in the series on Quadruplex DNA [8] amounted to 16.1 °C. Besides, the Tm with Quadruplex DNA [11] turned out to be 64 °C.
